For 53 molecules, IC50 results are on record in patent US8648118B2, “Bicyclic ring system substituted amide functionalised phenols as medicaments” (Boehringer Ingelheim International GmbH, priority 2010, dated 2014).

The term IC50 denotes the point on the concentration scale where inhibition reaches its midpoint. A higher IC50 goes with lower potency.

This assay concerns the target T1, BAF/3 cells expressing human CXCR2 (Homo sapiens, UniProt P25025).
T1 construct: expressed in transfected cells; host or cells: BAF/3 cells
T1 sequence (P25025 1-360): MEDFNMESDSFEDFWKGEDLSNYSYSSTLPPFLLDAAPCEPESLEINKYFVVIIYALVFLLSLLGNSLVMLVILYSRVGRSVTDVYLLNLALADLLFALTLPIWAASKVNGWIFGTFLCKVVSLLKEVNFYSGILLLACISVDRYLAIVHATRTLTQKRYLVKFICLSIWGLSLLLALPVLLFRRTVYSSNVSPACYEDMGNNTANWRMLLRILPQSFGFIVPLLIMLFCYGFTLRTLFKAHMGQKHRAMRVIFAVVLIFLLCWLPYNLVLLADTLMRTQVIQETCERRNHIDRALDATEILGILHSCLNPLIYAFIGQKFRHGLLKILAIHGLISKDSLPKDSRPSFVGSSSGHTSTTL
Description: Chemotaxis assay 1, transfected cell line: inhibition of CXCL1 induced chemotaxis. It is filed as cell-based. The following applies: inhibition of CXCL1 (3 nM) induced chemotaxis of BAF/3 cells expressing human CXCR2; 4 hours incubation. As for the experimental part:
Chemotaxis assay 1, transfected cell line: This assay measures the inhibition of CXCL1 induced chemotaxis of BAF/3 cells expressing human CXCR2. For each assay point, 100 μL of a 3×10^6/mL cell suspension are incubated with 1 μL of test compound diluted in DMSO. The bottom wells of a chemotaxis plate (5 μm pore size, Neuroprobe) is filled with 305 μL of chemotaxis buffer (RPMI 1640 medium (phenol red free), containing 2% fetal calf serum) and 3 nM CXCL1. The 5 μm pore membrane is applied onto the chemotaxis plate and 80 μL of the cell suspension is cautiously pipetted onto the membrane. The lid is put on the chemotaxis plate and the plate is incubated for 4 hours in an incubator (37° C., 5% CO2). For quantification of migrated cells, the cell suspension and the lid are removed and 100 μL from the bottom chamber are transferred to an Opti plate 96 (Perkin Elmer). 100 μL of substrate solution (provided by Cell Titer Glo kit, Promega) are added. This method uses the measurement of ATP present in metabolically active cells. After 10 min incubation at room temperature the plate is measured at Luminoscan for quantification of ATP-dependent generation of oxyluciferin. IC50s of the tested compound are calculated by non-linear regression and using a sigmoidal dose-response curve as fitting algorithm (provided by GraphPadPrism). Determination of a bottom value is performed by quantification of migration of buffer treated cells, migrating towards buffer only. Determination of a top value is performed by quantification of migration of buffer treated cells, migrating towards CXCL1.
In turn, `O=C(c1cccc(Nc2c(Nc3cccc(F)c3Cl)c(=O)c2=O)c1O)N1CCN2CCCC2C1` (centres unmarked) [Example 21] displayed an IC50 of 8 nM.
As for `CCC(Nc1c(Nc2cccc(C(=O)N3CCC4(CCNC4=O)CC3)c2O)c(=O)c1=O)c1ccccc1` (centres unmarked) [Example 29], the figure is 4.1 nM.
`CC[C@@H](Nc1c(Nc2cccc(C(=O)N3CCN4C(=O)COC[C@@H]4C3)c2O)c(=O)c1=O)c1ccccc1` [Example 38] showed an IC50 of 3.4 nM.
As for `O=C(Nc1cccc(C(=O)N2CCN3CCCC3C2)c1O)Nc1cccc(Cl)c1Cl` (centres unmarked) [Example 7], the figure is 2570 nM.
Molecule `CC[C@@H](Nc1c(Nc2cccc(C(=O)N3CCC4C(=O)NCCC43)c2O)c(=O)c1=O)c1ccccc1` (some centres unmarked) [Example 41] showed an IC50 of 66 nM.
`CC[C@@H](Nc1c(Nc2cccc(C(=O)N3CCN4C(=O)CCC4C3)c2O)c(=O)c1=O)c1ccccc1` (some centres unmarked) [Example 30]: the IC50 stood at 267 nM.
As for `O=C(Nc1cccc(C(=O)N2CCN3CCC[C@H]3C2)c1O)Nc1cccc(F)c1Cl` [Example 11], half-maximal inhibition (IC50) required 41 nM.
Turning to `CC[C@@H](Nc1c(Nc2cccc(C(=O)N3CCN4C(CCS4(=O)=O)C3)c2O)c(=O)c1=O)c1ccccc1` (some centres unmarked) [Example 47], inhibition was half-maximal at 818 nM (IC50).
As for `CCC(Nc1c(Nc2cccc(C(=O)N3CCN4CCCC4C3)c2O)c(=O)c1=O)c1ccccc1` (centres unmarked) [Example 20], the figure is 16 nM; as for `O=C(Nc1ccccc1Br)Nc1cccc(C(=O)N2CCN3C(=O)CCC3C2)c1O` (centres unmarked) [Example 12], 119 nM; as for `O=C(Nc1cccc(C(=O)N2CC(=O)N3CCCC3C2)c1O)Nc1cccc(F)c1Cl` (centres unmarked) [Example 15], 86 nM.
For the molecule `O=C(Nc1cccc(C(=O)N2CCN3C(=O)CCC3C2)c1O)Nc1cccc(Cl)c1Cl` (centres unmarked) [Example 13], the IC50 came out at 47 nM.
As for `O=C1NCCC2C1CCN2C(=O)c1cccc(Nc2c(Nc3cccc(F)c3Cl)c(=O)c2=O)c1O` (centres unmarked) [Example 55], the figure is 617 nM; as for `CC[C@@H](Nc1c(Nc2cccc(C(=O)N3CCN4CCC[C@H]4C3)c2O)c(=O)c1=O)c1ccc(C)o1` [Example 27], 0.1 nM; as for `CC[C@@H](Nc1c(Nc2cccc(C(=O)N3CCN4CCNC(=O)C4C3)c2O)c(=O)c1=O)c1ccccc1` (some centres unmarked) [Example 49], 926 nM.
In the case of `O=C(Nc1cccc(C(=O)N2CCN3C(=O)COC[C@H]3C2)c1O)Nc1cccc(F)c1Cl` [Example 18], the IC50 was 11 nM.
Under `CC[C@@H](Nc1c(Nc2cccc(C(=O)N3CC4(COC4)C3)c2O)c(=O)c1=O)c1ccccc1` [Example 36] stands 25 nM; under `CC[C@@H](Nc1c(Nc2cccc(C(=O)N3CCN4CCC[C@@H]4C3)c2O)c(=O)c1=O)c1ccccc1` [Example 24], 3.2 nM; under `CC[C@@H](Nc1c(Nc2cccc(C(=O)N3CCS(=O)(=O)C4(CCNC4=O)C3)c2O)c(=O)c1=O)c1ccccc1` (some centres unmarked) [Example 32], 401 nM.
Turning to `CC[C@@H](Nc1c(Nc2cccc(C(=O)N3CCN4C(=O)CCC4C3)c2O)c(=O)c1=O)c1ccc(C(F)(F)F)o1` (some centres unmarked) [Example 48], the IC50 was 859 nM.
As for `O=C(Nc1ccccc1Br)Nc1cccc(C(=O)N2CC(=O)N3CCCC3C2)c1O` (centres unmarked) [Example 16], the figure is 85 nM.
`CC[C@H](Nc1c(Nc2cccc(C(=O)N3CCN4CCC[C@@H]4C3)c2O)c(=O)c1=O)c1ccccc1` [Example 23] came in with an IC50 of 2740 nM.
As for `O=C(Nc1cccc(C(=O)N2CCC3(CCNC3=O)CC2)c1O)Nc1cccc(F)c1Cl` [Example 4], the figure is 34 nM; as for `CC[C@@H](Nc1c(Nc2cccc(C(=O)N3CC4OC(C)(C)C[C@@H]4[C@H]3C(=O)OC)c2O)c(=O)c1=O)c1ccccc1` (some centres unmarked) [Example 39], 23 nM.
As for `O=C(Nc1cccc(C(=O)N2CCN3C(=O)COC[C@@H]3C2)c1O)Nc1cccc(F)c1Cl` [Example 19], the figure is 50 nM.
As to `CC[C@@H](Nc1c(Nc2cccc(C(=O)N3CC4OCCN(C)C4C3)c2O)c(=O)c1=O)c1ccccc1` (some centres unmarked) [Example 45], the IC50 is 3.3 nM.
As for `O=C(c1cccc(Nc2c(Nc3cccc(F)c3Cl)c(=O)c2=O)c1O)N1CC(=O)N2CCCC2C1` (centres unmarked) [Example 56], the figure is 865 nM; as for `O=C(c1cccc(Nc2c(Nc3cccc(F)c3Cl)c(=O)c2=O)c1O)N1CCN2CCOCC2C1` (centres unmarked) [Example 54], 67 nM.
Regarding `O=C(Nc1cccc(C(=O)N2CCN3C(=O)CCC3C2)c1O)Nc1cccc(F)c1Cl` (centres unmarked) [Example 14], the IC50 was found to be 11 nM.
Under `CC[C@@H](Nc1c(Nc2cccc(C(=O)N3CC4OC(C)(C)C[C@@H]4[C@H]3CO)c2O)c(=O)c1=O)c1ccccc1` (some centres unmarked) [Example 40] stands 34 nM; under `O=C(c1cccc(Nc2c(Nc3cccc(F)c3Cl)c(=O)c2=O)c1O)N1CCN2CCCCC2C1` (centres unmarked) [Example 51], 247 nM; under `O=C(c1cccc(Nc2c(Nc3cccc(F)c3Cl)c(=O)c2=O)c1O)N1CC2(COC2)C1` [Example 53], 360 nM.
As for `CC[C@@H](Nc1c(Nc2cccc(C(=O)N3CCN4CCOCC4C3)c2O)c(=O)c1=O)c1ccccc1` (some centres unmarked) [Example 35], the figure is 16 nM; as for `CC[C@@H](Nc1c(Nc2cccc(C(=O)N3CCO[C@@H]4CN(C)C[C@H]43)c2O)c(=O)c1=O)c1ccccc1` [Example 43], 11 nM.
As for `O=C(c1cccc(Nc2c(Nc3ccccc3Br)c(=O)c2=O)c1O)N1CCN2CCCC2C1` (centres unmarked) [Example 22], the figure is 1.5 nM; as for `O=C(Nc1ccccc1Br)Nc1cccc(C(=O)N2CCN3CCC[C@@H]3C2)c1O` [Example 8], 651 nM.
On to `O=C(Nc1cccc(C(=O)N2CCN3CCOCC3C2)c1O)Nc1cccc(F)c1Cl` (centres unmarked) [Example 17], for which the IC50 is 1.2 nM.
As for `CC[C@@H](Nc1c(Nc2cccc(C(=O)N3CCO[C@@H]4CNC[C@H]43)c2O)c(=O)c1=O)c1ccccc1` [Example 42], the figure is 45 nM; as for `O=C(c1cccc(Nc2c(Nc3cccc(F)c3Cl)c(=O)c2=O)c1O)N1CCC2(CCNC2=O)CC1` [Example 52], 6.2 nM.
Under `CC[C@H](Nc1c(Nc2cccc(C(=O)N3CCN4CCC[C@H]4C3)c2O)c(=O)c1=O)c1ccccc1` [Example 25] stands 1350 nM; under `CC[C@@H](Nc1c(Nc2cccc(C(=O)N3CCC4(CCCC4)CC3)c2O)c(=O)c1=O)c1ccccc1` [Example 37], 26 nM; under `CC[C@@H](Nc1c(Nc2cccc(C(=O)N3CCN4CCC[C@H]4C3)c2O)c(=O)c1=O)c1ccc(C(F)(F)F)o1` [Example 28], 40 nM.
Under `CC[C@@H](Nc1c(Nc2cccc(C(=O)N3CCC4(CCNC4=O)CC3)c2O)c(=O)c1=O)c1ccc(C)o1` [Example 50] stands 1850 nM.
As to `O=C(Nc1cccc(C(=O)N2CCC3(CCNC3=O)CC2)c1O)Nc1cccc(Cl)c1Cl` [Example 3], the IC50 was found to be 634 nM.
`CC[C@@H](Nc1c(Nc2cccc(C(=O)N3CCC4(CC3)COCC(=O)N4)c2O)c(=O)c1=O)c1ccccc1` [Example 44] showed an IC50 of 2130 nM.
As for `CC[C@@H](Nc1c(Nc2cccc(C(=O)N3CCN4CCC[C@H]4C3)c2O)c(=O)c1=O)c1ccccc1` [Example 26], the figure is 3.9 nM; as for `O=C(Nc1cccc(C(=O)N2CCN3CCC[C@@H]3C2)c1O)Nc1cccc(F)c1Cl` [Example 9], 22 nM.
Under `O=C(Nc1ccccc1Br)Nc1cccc(C(=O)N2CCN3CCC[C@H]3C2)c1O` [Example 10] stands 260 nM.
Under `O=C(Nc1ccccc1Br)Nc1cccc(C(=O)N2CCN3CCCC3C2)c1O` (centres unmarked) [Example 5] stands 377 nM.
Regarding `CC[C@@H](Nc1c(Nc2cccc(C(=O)N3CC(=O)N4CCCC4C3)c2O)c(=O)c1=O)c1ccccc1` (some centres unmarked) [Example 31], the IC50 was determined as 662 nM.
`CC[C@@H](Nc1c(Nc2cccc(C(=O)N3CCN4CCOC[C@H]4C3)c2O)c(=O)c1=O)c1ccccc1` [Example 46] showed an IC50 of 51 nM.
As for `O=C(Nc1ccccc1Br)Nc1cccc(C(=O)N2CCC3(CCNC3=O)CC2)c1O` [Example 1], the figure is 597 nM; as for `CC[C@@H](Nc1c(Nc2cccc(C(=O)N3CCC4(CCNC4=O)CC3)c2O)c(=O)c1=O)c1ccccc1` [Example 34], 126 nM.
